Assay results from patent publication US4684664A, “Derivatives of β-(4-isocyano-1,2,3,4-diepoxycyclopentyl) acrylic acid” (Kureha Kagaku Kogyo Kabushiki Kaisha, priority 1984, dated 1987).
In brackets after ≈: the same amount, converted by molar mass.

Assays:
Assay type in all cases: cell-based
[1] = tested on: Salmonella shottmuelleri 8006; assay: Antibacterial activity, agar-dilution MIC, organism No. 11; settings: Salmonella, 8006; Organism No. 11, bouillon-agar; read-out: Minimum Inhibitory Concentration
Summary of the method: (§1)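 Endpoint: MIC in μg/ml of culture medium. Method: agar dilution. Medium: bouillon agar.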

[2] = tested on: Pseudomonas aeruginosa IFO 3445; assay: Antibacterial activity, agar-dilution MIC, organism No. 15; settings: Pseudomonas aeruginosa, IFO3445; Organism No. 15, bouillon-agar; read-out: Minimum Inhibitory Concentration
Summary of the method: as §1

[3] = tested on: Klebsiella pneumoniae PCI-602; assay: Antibacterial activity, agar-dilution MIC, organism No. 7; settings: Klebsiella pneumoniae, PCI602; Organism No. 7, bouillon-agar; read-out: Minimum Inhibitory Concentration
Summary of the method: as §1

[4] = tested on: Streptococcus pyogenes IFO 3340; assay: Antibacterial activity, agar-dilution MIC, organism No. 26; settings: Streptococcus pyogenes, IFO3340; Organism No. 26, bouillon-agar; read-out: Minimum Inhibitory Concentration
Summary of the method: as §1

[5] = tested on: Staphylococcus aureus MS 353; assay: Antibacterial activity, agar-dilution MIC, organism No. 3; settings: Staphylococcus aureus, MS353; Organism No. 3, bouillon-agar; read-out: Minimum Inhibitory Concentration
Summary of the method: as §1

[6] = tested on: Proteus morganii IFO 3848; assay: Antibacterial activity, agar-dilution MIC, organism No. 18; settings: Morganella morganii, IFO3848; Organism No. 18, bouillon-agar; read-out: Minimum Inhibitory Concentration
Summary of the method: as §1

[7] = tested on: Salmonella paratyphi-A 1015; assay: Antibacterial activity, agar-dilution MIC, organism No. 10; settings: Salmonella enterica, PARATYPHI, read-out: Minimum Inhibitory Concentration
Summary of the method: as §1

[8] = tested on: Micrococcus luteus ATCC 9341; assay: Antibacterial activity, agar-dilution MIC, organism No. 25; settings: Micrococcus luteus, ATCC9341; Organism No. 25, bouillon-agar; read-out: Minimum Inhibitory Concentration
Summary of the method: as §1

Enterobacter cloacae 963 = assay: Antibacterial activity, agar-dilution MIC, organism No. 24; settings: Enterobacter cloacae, 963; Organism No. 24, bouillon-agar; read-out: Minimum Inhibitory Concentration
Summary of the method: as §1

[9] = tested on: Pseudomonas aeruginosa PAO 1; assay: Antibacterial activity, agar-dilution MIC, organism No. 17; settings: Pseudomonas aeruginosa, PAO1; Organism No. 17, bouillon-agar; read-out: Minimum Inhibitory Concentration
Summary of the method: as §1

[10] = tested on: Salmonella enteritidis G 14; assay: Antibacterial activity, agar-dilution MIC, organism No. 12; settings: Salmonella enterica, ENTERITIDIS; Organism No. 12, bouillon-agar; read-out: Minimum Inhibitory Concentration
Summary of the method: as §1

[11] = tested on: Escherichia coli NIHJ-JC-2; assay: Antibacterial activity, agar-dilution MIC, organism No. 5; settings: Escherichia coli, NIHJJC2; Organism No. 5, bouillon-agar; read-out: Minimum Inhibitory Concentration
Summary of the method: as §1

Proteus vulgaris OX-19 = assay: Antibacterial activity, agar-dilution MIC, organism No. 20; settings: Proteus vulgaris, OX19; Organism No. 20, bouillon-agar; read-out: Minimum Inhibitory Concentration
Summary of the method: as §1

[12] = tested on: Aspergillus niger IFO 6342; assay: Antifungal activity, agar-dilution MIC, organism No. 30; settings: Aspergillus niger, IFO6342; Organism No. 30, bouillon-agar; read-out: Minimum Inhibitory Concentration
Summary of the method: as §1

[13] = tested on: Pseudomonas aeruginosa NCTC 10490; assay: Antibacterial activity, agar-dilution MIC, organism No. 16; settings: Pseudomonas aeruginosa, NCTC10490; Organism No. 16, bouillon-agar; read-out: Minimum Inhibitory Concentration
Summary of the method: as §1

[14] = tested on: Streptococcus pyogenes Cook; assay: Antibacterial activity, agar-dilution MIC, organism No. 4; settings: Streptococcus pyogenes; Organism No. 4, bouillon-agar; read-out: Minimum Inhibitory Concentration
Summary of the method: as §1

[15] = tested on: Serratia marcescens IAM 1184; assay: Antibacterial activity, agar-dilution MIC, organism No. 13; settings: Serratia marcescens, IAM1184; Organism No. 13, bouillon-agar; read-out: Minimum Inhibitory Concentration
Summary of the method: as §1

[16] = tested on: Candida albicans IAM 4905; assay: Antifungal activity, agar-dilution MIC, organism No. 29; settings: Candida albicans, IAM4905; Organism No. 29, bouillon-agar; read-out: Minimum Inhibitory Concentration
Summary of the method: as §1

[17] = tested on: Proteus rettgeri IFO 3850; assay: Antibacterial activity, agar-dilution MIC, organism No. 22; settings: Providencia rettgeri, IFO3850; Organism No. 22, bouillon-agar; read-out: Minimum Inhibitory Concentration
Summary of the method: as §1

[18] = tested on: Proteus mirabilis IFO 3849; assay: Antibacterial activity, agar-dilution MIC, organism No. 19; settings: Proteus mirabilis, IFO3849; Organism No. 19, bouillon-agar; read-out: Minimum Inhibitory Concentration
Summary of the method: as §1

[19] = tested on: Mycoplasma pneumoniae IID817; assay: Antimycoplasmal activity, MIC by phenol red colour change, organism No. 28; settings: Mycoplasma, IID817; Organism No. 28, PPLO broth + 1% glucose, 37° C.; read-out: Minimum Inhibitory Concentration (MIC)
Protocol: Mycoplasma pneumoniae IID817 was used as the test microorganism in a culture medium prepared by adding 1% of glucose to "PPLO broth (manufactured by Difco Co.) liquid culture medium" at 37° C. with phenol red as an indicator, thereby culturing the test microorganism.

[20] = tested on: Staphylococcus aureus Terajima; assay: Antibacterial activity, agar-dilution MIC, organism No. 2; settings: Staphylococcus aureus; Organism No. 2, bouillon-agar; read-out: Minimum Inhibitory Concentration
Summary of the method: as §1

[21] = tested on: Escherichia coli K12 C600 IAM 1264; assay: Antibacterial activity, agar-dilution MIC, organism No. 6; settings: Escherichia coli, IAM1264; Organism No. 6, bouillon-agar; read-out: Minimum Inhibitory Concentration
Summary of the method: as §1

[22] = tested on: Enterobacter aerogenes ATCC 13048; assay: Antibacterial activity, agar-dilution MIC, organism No. 23; settings: Klebsiella aerogenes, ATCC13048; Organism No. 23, bouillon-agar; read-out: Minimum Inhibitory Concentration
Summary of the method: as §1

Proteus vulgaris HX-19 = assay: Antibacterial activity, agar-dilution MIC, organism No. 21; settings: Proteus vulgaris, HX19; Organism No. 21, bouillon-agar; read-out: Minimum Inhibitory Concentration
Summary of the method: as §1

[23] = tested on: Staphylococcus aureus FDA 209PJc-1; assay: Antibacterial activity, agar-dilution MIC, organism No. 1; settings: Staphylococcus aureus, FDA209PJC1; Organism No. 1, bouillon-agar; read-out: Minimum Inhibitory Concentration
Summary of the method: as §1

Salmonella typhi 901 = assay: Antibacterial activity, agar-dilution MIC, organism No. 9; settings: Salmonella enterica, TYPHI, read-out: Minimum Inhibitory Concentration
Summary of the method: as §1

[24] = tested on: Streptococcus faecium IFO 3826; assay: Antibacterial activity, agar-dilution MIC, organism No. 27; settings: Enterococcus faecium, IFO3826; Organism No. 27, bouillon-agar; read-out: Minimum Inhibitory Concentration
Summary of the method: as §1

[25] = tested on: Bacillus subtilis ATCC 6633; assay: Antibacterial activity, agar-dilution MIC, organism No. 14; settings: Bacillus subtilis, ATCC6633; Organism No. 14, bouillon-agar; read-out: Minimum Inhibitory Concentration
Summary of the method: as §1

[26] = tested on: Salmonella typhimurium IID 971; assay: Antibacterial activity, agar-dilution MIC, organism No. 8; settings: Salmonella enterica; Organism No. 8, bouillon-agar; read-out: Minimum Inhibitory Concentration
Summary of the method: as §1

[C-]#[N+]C12CC3(/C=C/C(=O)Nc4ccc(C(=O)c5ccccc5)cc4)OC3C1O2 (stereo not drawn) [compound 79] was tested, and the MIC [1] was 6.25 µg/mL (≈ 16.8 µM), the MIC [2] was > 200 µg/mL and the MIC [3] was 3.13 µg/mL (≈ 8.41 µM). For the same compound, the MIC [4] was 0.78 µg/mL (≈ 2.09 µM), the MIC [5] was 0.39 µg/mL (≈ 1.05 µM) and the MIC [6] was 6.25 µg/mL (≈ 16.8 µM). The MIC [7] was 3.13 µg/mL (≈ 8.41 µM), the MIC [8] was > 200 µg/mL and the MIC (Enterobacter cloacae 963) was > 200 µg/mL. The MIC [9] was > 200 µg/mL, the MIC [10] was > 200 µg/mL and the MIC [11] was > 200 µg/mL. For the same compound, the MIC (Proteus vulgaris OX-19) was 1.56 µg/mL (≈ 4.19 µM), the MIC [12] was 3.13 µg/mL (≈ 8.41 µM) and the MIC [13] was > 200 µg/mL. For the same compound, the MIC [14] was 3.13 µg/mL (≈ 8.41 µM), the MIC [15] was > 200 µg/mL and the MIC [16] was 0.39 µg/mL (≈ 1.05 µM). The MIC [17] was > 200 µg/mL, the MIC [18] was > 200 µg/mL and the MIC [19] was < 0.2 µg/mL. For the same compound, the MIC [20] was 0.78 µg/mL (≈ 2.09 µM), the MIC [21] was > 200 µg/mL and the MIC [22] was > 200 µg/mL. For the same compound, the MIC (Proteus vulgaris HX-19) was 1.56 µg/mL (≈ 4.19 µM), the MIC [23] was 0.39 µg/mL (≈ 1.05 µM) and the MIC (Salmonella typhi 901) was 200 µg/mL (≈ 537 µM). The MIC [24] was 0.78 µg/mL (≈ 2.09 µM), the MIC [25] was 1.56 µg/mL (≈ 4.19 µM) and the MIC [26] was > 200 µg/mL.

With [C-]#[N+]C12CC3(/C=C/C(=O)Nc4ccc(C(C)=O)cc4)OC3C1O2 (stereo not drawn) [compound 80] the MIC [1] was 3.13 µg/mL (≈ 10.1 µM), the MIC [2] was > 200 µg/mL and the MIC [3] was 1.56 µg/mL (≈ 5.03 µM). The MIC [4] was 3.13 µg/mL (≈ 10.1 µM), the MIC [5] was 0.78 µg/mL (≈ 2.51 µM) and the MIC [6] was 6.25 µg/mL (≈ 20.1 µM). The MIC [7] was 3.13 µg/mL (≈ 10.1 µM), the MIC [8] was > 200 µg/mL and the MIC (Enterobacter cloacae 963) was > 200 µg/mL. For the same compound, the MIC [9] was > 200 µg/mL, the MIC [10] was 12.5 µg/mL (≈ 40.3 µM) and the MIC [11] was > 200 µg/mL. The MIC (Proteus vulgaris OX-19) was 1.56 µg/mL (≈ 5.03 µM), the MIC [12] was 3.13 µg/mL (≈ 10.1 µM) and the MIC [13] was > 200 µg/mL. For the same compound, the MIC [14] was 6.25 µg/mL (≈ 20.1 µM), the MIC [15] was > 200 µg/mL and the MIC [16] was 0.39 µg/mL (≈ 1.26 µM). For the same compound, the MIC [17] was > 200 µg/mL, the MIC [18] was > 200 µg/mL and the MIC [19] was < 0.2 µg/mL. For the same compound, the MIC [20] was 1.56 µg/mL (≈ 5.03 µM), the MIC [21] was > 200 µg/mL and the MIC [22] was > 200 µg/mL. The MIC (Proteus vulgaris HX-19) was 1.56 µg/mL (≈ 5.03 µM), the MIC [23] was 0.39 µg/mL (≈ 1.26 µM) and the MIC (Salmonella typhi 901) was 12.5 µg/mL (≈ 40.3 µM). The MIC [24] was 1.56 µg/mL (≈ 5.03 µM), the MIC [25] was 6.25 µg/mL (≈ 20.1 µM) and the MIC [26] was 100 µg/mL (≈ 322 µM).

For [C-]#[N+]C12CC3(/C=C/C(=O)NOC)OC3C1O2 (stereo not drawn) [compound 81], the MIC [1] was 12.5 µg/mL (≈ 56.3 µM), the MIC [2] was 200 µg/mL (≈ 900 µM) and the MIC [3] was 200 µg/mL (≈ 900 µM). The MIC [4] was 6.25 µg/mL (≈ 28.1 µM), the MIC [5] was 12.5 µg/mL (≈ 56.3 µM) and the MIC [6] was 25 µg/mL (≈ 113 µM). The MIC [7] was 6.25 µg/mL (≈ 28.1 µM), the MIC [8] was 100 µg/mL (≈ 450 µM) and the MIC (Enterobacter cloacae 963) was > 200 µg/mL. The MIC [9] was > 200 µg/mL, the MIC [10] was 6.25 µg/mL (≈ 28.1 µM) and the MIC [11] was 12.5 µg/mL (≈ 56.3 µM). The MIC (Proteus vulgaris OX-19) was 50 µg/mL (≈ 225 µM), the MIC [12] was 6.25 µg/mL (≈ 28.1 µM) and the MIC [13] was 200 µg/mL (≈ 900 µM). It also gave an MIC [14] of 25 µg/mL (≈ 113 µM), an MIC [15] of 200 µg/mL (≈ 900 µM) and an MIC [16] of 12.5 µg/mL (≈ 56.3 µM). For the same compound, the MIC [17] was 100 µg/mL (≈ 450 µM), the MIC [18] was 100 µg/mL (≈ 450 µM) and the MIC [19] was < 0.2 µg/mL. For the same compound, the MIC [20] was 25 µg/mL (≈ 113 µM), the MIC [21] was 12.5 µg/mL (≈ 56.3 µM) and the MIC [22] was > 200 µg/mL. For the same compound, the MIC (Proteus vulgaris HX-19) was 6.25 µg/mL (≈ 28.1 µM), the MIC [23] was 25 µg/mL (≈ 113 µM) and the MIC (Salmonella typhi 901) was 6.25 µg/mL (≈ 28.1 µM). For the same compound, the MIC [24] was 12.5 µg/mL (≈ 56.3 µM), the MIC [25] was 50 µg/mL (≈ 225 µM) and the MIC [26] was 12.5 µg/mL (≈ 56.3 µM).
